Assay results published in publication PMC3496398 (Molecular pharmaceutics, 2010).
“Also recorded” adds a separate entry of the source.

Columns and labels:
[1] = system: rat jejunum; test: Rat jejunal single-pass perfusion assay; type: in vivo; conditions: for rat jejunal Peff in the absence of HNAP: drug perfused alone, 0 mM HNAP
[2] = Octanol-buffer; conditions: Log PAB versus cLog P of free drug
[3] = system: Caco-2 cell monolayers; test: Caco-2 cell monolayer transport assay; type: in vitro ADME; conditions: apical pH 6.5 to basolateral pH 7.4, 0 mM HNAP
[4] = in humans; cited from earlier work
[5] = rat, in vivo; cited from earlier work
[6] = system: influenza virus neuraminidase; conditions: influenza virus neuraminidase inhibitor; cited from earlier work

SMILES	rat jejunal Peff in the absence of HNAP [1]	increase of log P by ion-pairing with HNAP compared to the free drug [2] [units]	Caco-2 Papp in the absence of HNAP [3]	other results
CCOC(=O)C1=C[C@@H](OC(CC)CC)[C@H](NC(C)=O)[C@@H](NC(=N)N)C1 [GO, (3R,4R,5S)-ethyl-4-acetamido-5-guanidino-3-(pentan-3-yloxy)cyclohex-1-enecarboxylate]	No effective permeability; also recorded: Essentially zero	3.7	no detectable transport	change of rat jejunal Peff on co-perfusion with HNAP ([1]; co-perfusion with 12 mM HNAP versus drug alone): failed to increase; also recorded: no significant increase
CCOC(=O)C1=C[C@@H](OC(CC)CC)[C@H](NC(C)=O)[C@@H](N)C1 [OSV, oseltamivir]				oral absorption [4]: 60–80%
CCCCCCCOC(=O)C1=C[C@H](NC(=N)N)[C@@H](NC(C)=O)[C@H]([C@H](O)[C@H](O)CO)O1 [ZHE, 5-Acetamido-2,6-anhydro-4-(guanidino)-3,4,5-trideoxy-D-glycero-D-galcto-non-2-enonic acid heptyl ester]	essentially zero	1.2	no detectable transport	rat jejunal Peff at 4 mM HNAP ([1]; 4 mM HNAP): 21 ×10⁻⁶ cm/s; rat jejunal Peff at 10 mM HNAP ([1]; 10 mM HNAP): 40 ×10⁻⁶ cm/s
CC(=O)N[C@H]1[C@H]([C@H](O)[C@H](O)CO)OC(C(=O)O)=C[C@@H]1N=C(N)N [ZNV, Zanamivir]				percent of oral dose absorbed (%F) [5]: 4%
CCC(CC)O[C@@H]1C=C(C(=O)O)C[C@H](NC(=N)N)[C@H]1NC(C)=O [active carboxylate of GO]				IC50 [6]: 0.9 nM
